Peptide text beside a SMILES is read from it.
Key:
Assay type in all cases: cell-based
[1] = test system: H157 human lung cancer cells; test: MTT cell antiproliferation assay; conditions: 24 h of treatment, serum free medium, 10^−9–10^−4 M
Procedure: (§1) The antiproliferative activities of the synthesized peptides were assessed on six human cancer cell lines (PC-3, H157, H460, H838, MCF-7, U251MG) and two human normal cell lines (HMEC-1 and MRC-5) using the MTT cell viability assay. Human lung cancer cells (H838, H157, and H460) and human prostate cancer cells (PC-3) were cultured in complete growth medium (CGM) (Roswell Park Memorial Institute (RPMI) 1640 Medium (Gibco, Paisley, UK): Fetal bovine serum (FBS) (Gibco, Campinas, Brazil): Penicillin-streptomycin solution (PS) (Gibco, Grand Island, NY, USA) 89/10/1 v/v/v). Human glioblastoma astrocytoma (U251MG) and human breast cancer cell (MCF-7) were cultured in complete growth medium (Dulbecco’s Modified Eagle medium (DMEM) (Gibco, Paisley, UK): FBS: PS 89/10/1 v/v/v). Human microvascular endothelial cells (HMEC-1) and human pulmonary fibroblast cells (MRC-5) were cultured in MCDB131 medium (supplemented with 10% FBS, 1% PS, 10 ng/mL epidermal growth factor, 1 µg/mL hydrocortisone, and 10 mM glutamine) and Eagle’s Minimal Essential Medium (EMEM) (supplemented with 10% FBS and 1% PS), respectively. Cell suspension, containing 8 × 10^3 cells per 100 µL, was first added to 96-well plates for overnight incubation. Then, the adherent cells in the 96-well plates were subject to cell starvation using the serum free medium treatment for at least 4 h to ensure that the cells were all in the same growth cycle. The peptide solutions, with final concentrations of 10^−9–10^−4 M, were prepared with serum free medium and added onto the plate. In addition, Triton X-100 (0.1%) (Sigma-Aldrich, St. Louis, MO, USA) was used as a positive control. After 24 h of administration, the MTT solution was added to the plate and incubated for 2 h. Then, the supernatant was discarded and DMSO was added to dissolve the purple formazan crystals. The absorbance was measured in all wells using the Synergy HT plate reader at a wavelength of 570 nm.

[2] = test system: U251MG human glioblastoma cells; test: MTT cell antiproliferation assay; conditions: 24 h of treatment, serum free medium, 10^−9–10^−4 M
Procedure: as §1

[3] = test system: MCF-7 human breast cancer cells; test: MTT cell antiproliferation assay; conditions: MCF-7, MTT, 24 h of treatment, serum free medium, 10^−9–10^−4 M
Procedure: as §1

[4] = test system: MRC-5 human pulmonary fibroblast cells; test: LDH cytotoxicity assay; conditions: MRC-5, 24 h, highest test concentration 100 µM; relative to lysis buffer maximum
Procedure: A CyQUANT™ LDH Cytotoxicity Detection Kit (Thermo Fisher Scientific, Waltham, MA, USA) was used to detect the LDH released from human microvascular endothelial cell line (HMEC-1) and human pulmonary fibroblast cell line (MRC-5). Cells were cultured as for the MTT antiproliferation assay described previously. After incubation, the peptide solutions at the same concentrations as in the previous method were added to the cells for further incubation of 24 h. Among these, the positive control group, representing the maximal LDH release, was obtained from the 10 × lysis buffer supplied in the kit. The lysis buffer was added to the control group and co-cultured for 45 min, while deionized water was added to the spontaneous LDH release control. Subsequently, the same volume of sample as the reaction mixture was withdrawn, added into a new 96-well plate, and mixed well. After co-culturing under dark conditions for 30 min, an equal amount of stop solution was added to stop the reaction. Absorbance values of all experimental groups were measured at wavelengths of 490 and 680 nm using the Synergy HT plate reader.

SMILES | IC50 [1] | IC50 [2] | IC50 [3] | LDH release [4]
CC(C)C[C@H](NC(=O)[C@H](CCCCN)NC(=O)[C@H](C)NC(=O)[C@H](C)NC(=O)CNC(=O)CNC(=O)[C@H](CCCNC(=N)N)NC(=O)[C@H](CCCNC(=N)N)NC(=O)[C@H](CCCNC(=N)N)NC(=O)[C@H](CCC(N)=O)NC(=O)[C@H](CCCNC(=N)N)NC(=O)[C@H](CCCNC(=N)N)NC(=O)[C@H](CCCCN)NC(=O)[C@H](CCCCN)NC(=O)[C@@H](N)CCCNC(=N)N)C(=O)N1CCC[C@H]1C(=O)N[C@@H](Cc1ccccc1)C(=O)N[C@@H](CCCNC(=N)N)C(=O)N[C@H]1CSSC[C@@H](C(=O)O)NC(=O)[C@H](Cc2ccccc2)NC(=O)[C@H](C)NC(=O)[C@H](C)NC(=O)[C@H](CCCCN)NC1=O [TAT-KOV2] (HELM PEPTIDE1{R.K.K.R.R.Q.R.R.R.G.G.A.A.K.L.P.F.R.C.K.A.A.F.C}$PEPTIDE1,PEPTIDE1,19:R3-24:R3$$$V2.0) | 45.8 µM | – | – | –
CC(C)C[C@H](NC(=O)[C@H](CCCCN)NC(=O)[C@H](C)NC(=O)[C@H](C)NC(=O)CNC(=O)CNC(=O)[C@H](CCCNC(=N)N)NC(=O)[C@H](CCCNC(=N)N)NC(=O)[C@H](CCCNC(=N)N)NC(=O)[C@H](CCC(N)=O)NC(=O)[C@H](CCCNC(=N)N)NC(=O)[C@H](CCCNC(=N)N)NC(=O)[C@H](CCCCN)NC(=O)[C@H](CCCCN)NC(=O)[C@@H](N)CCCNC(=N)N)C(=O)N1CCC[C@H]1C(=O)N[C@@H](Cc1ccccc1)C(=O)N[C@@H](CCCNC(=N)N)C(=O)N[C@H]1CSSC[C@@H](C(=O)O)NC(=O)[C@H](Cc2ccccc2)NC(=O)[C@H](C)NC(=O)[C@H](C)NC(=O)[C@H](Cc2ccccc2)NC1=O [TAT-F9-KOV2] (HELM PEPTIDE1{R.K.K.R.R.Q.R.R.R.G.G.A.A.K.L.P.F.R.C.F.A.A.F.C}$PEPTIDE1,PEPTIDE1,19:R3-24:R3$$$V2.0) | 2.2 µM | 7.6 µM | 11.7 µM | more than 10%

Source: article PMC9501525, “Conjugation of a Cationic Cell-Penetrating Peptide with a Novel Kunitzin-like Trypsin Inhibitor: New Insights for Enhancement of Peptide Bioactivities” (Pharmaceutics, 2022)
